The values that follow come from ChEMBL document CHEMBL5137127, “Astramalabaricosides A-T, Highly Oxygenated Malabaricane Triterpenoids with Migratory Inhibitory Activity from Astragalus membranaceus var. mongholicus” (J Nat Prod, 2022).

Calls of active or inactive are those of the source. The rule behind the calls is not given here.

In this test the test system is HepG2. Put plainly: Antimigratory activity against human HepG2 cells assessed as inhibition of cell migration at 100 uM measured upto 24 hrs by inverted microscopy based scratch wound healing assay. The format is functional.
`CC(=O)N[C@H]1[C@H](O[C@H]2[C@H](O[C@H]3[C@H](O[C@H]4CC[C@]5(C)[C@H]6C[C@@H](O)[C@@H]([C@](C)(O)CC/C=C(\C)C[C@@H]7OC(=O)O[C@H]7[C@](C)(O)CO)[C@]6(C)CC[C@H]5C4(C)C)O[C@H](CO[C@@H]4OC[C@@H](O)[C@H](O)[C@H]4O)[C@@H](O)[C@@H]3O)O[C@@H](C)[C@H](O)[C@H]2O)O[C@H](CO)[C@@H](O)[C@@H]1O[C@@H]1OC[C@H](O)[C@H](O)[C@H]1O`: the outcome was Active.

Consider `C/C(=C\CC[C@@](C)(O)[C@@H]1[C@H](O)C[C@H]2[C@@]1(C)CC[C@H]1C(C)(C)[C@@H](O[C@@H]3O[C@H](CO[C@@H]4OC[C@@H](O)[C@H](O)[C@H]4O)[C@@H](O)[C@H](O)[C@H]3O[C@@H]3O[C@@H](C)[C@H](O)[C@@H](O)[C@H]3O)CC[C@]21C)C[C@@H]1OC(=O)O[C@H]1[C@](C)(O)CO[C@@H]1O[C@H](CO)[C@@H](O)[C@H](O)[C@H]1O`, for which the outcome was Active.

On to `C/C(=C\CC[C@@](C)(O)[C@@H]1[C@H](O)C[C@H]2[C@@]1(C)CC[C@H]1C(C)(C)[C@@H](O[C@@H]3O[C@H](CO[C@@H]4OC[C@@H](O)[C@H](O)[C@H]4O)[C@@H](O)[C@H](O)[C@H]3O[C@@H]3O[C@@H](C)[C@H](O)[C@@H](O)[C@H]3O)CC[C@]21C)C[C@H](O)[C@@H](O)[C@@](C)(O)CO[C@@H]1O[C@H](CO)[C@@H](O)[C@H](O)[C@H]1O`, for which the outcome was Active.

`CC(=O)N[C@H]1[C@H](O[C@H]2[C@H](O[C@H]3[C@H](O[C@H]4CC[C@]5(C)[C@H]6C[C@@H](O)[C@@H]([C@](C)(O)CC/C=C(\C)C[C@@H]7OC(=O)O[C@H]7[C@](C)(O)CO[C@@H]7O[C@H](CO)[C@@H](O)[C@H](O)[C@H]7O)[C@]6(C)CC[C@H]5C4(C)C)O[C@H](CO[C@@H]4OC[C@@H](O)[C@H](O)[C@H]4O)[C@@H](O)[C@@H]3O)O[C@@H](C)[C@H](O)[C@H]2O)O[C@H](CO)[C@@H](O)[C@@H]1O`: the outcome was Active.

In the case of `C/C(=C\CC[C@@](C)(O)[C@@H]1[C@H](O)C[C@H]2[C@@]1(C)CC[C@H]1C(C)(C)[C@@H](O[C@@H]3O[C@H](CO[C@@H]4OC[C@@H](O)[C@H](O)[C@H]4O)[C@@H](O)[C@H](O)[C@H]3O[C@@H]3O[C@@H](C)[C@H](O)[C@@H](O)[C@H]3O)CC[C@]21C)C[C@@H]1OC(=O)O[C@H]1[C@](C)(O)CO`, the outcome was Active.

As to `CC(=O)N[C@H]1[C@H](O[C@H]2[C@H](O[C@H]3[C@H](O[C@H]4CC[C@]5(C)[C@H]6C[C@@H](O)[C@@H]([C@](C)(O)CC/C=C(\C)C[C@@H]7OC(=O)O[C@H]7C(C)(C)O)[C@]6(C)CC[C@H]5C4(C)C)O[C@H](CO[C@@H]4OC[C@@H](O)[C@H](O)[C@H]4O)[C@@H](O)[C@@H]3O)O[C@@H](C)[C@H](O)[C@H]2O)O[C@H](CO)[C@@H](O)[C@@H]1O`, the result was Active.

`CC(=O)N[C@H]1[C@H](O[C@H]2[C@H](O[C@H]3[C@H](O[C@H]4CC[C@]5(C)[C@H]6C[C@@H](O)[C@@H]([C@](C)(O)CC/C=C(\C)C[C@@H]7OC(=O)O[C@H]7[C@](C)(O)CO)[C@]6(C)CC[C@H]5C4(C)C)O[C@H](CO[C@@H]4OC[C@@H](O)[C@H](O)[C@H]4O)[C@@H](O)[C@@H]3O)O[C@@H](C)[C@H](O)[C@H]2O)O[C@H](CO)[C@@H](O)[C@@H]1O`: the result was Active.

As to `CC(=O)N[C@H]1[C@H](O[C@H]2[C@H](O[C@H]3[C@H](O[C@H]4CC[C@]5(C)[C@H]6C[C@@H](O)[C@@H]([C@](C)(O)CC/C=C(\C)C[C@H](O)[C@@H](O)[C@@](C)(O)CO[C@@H]7O[C@H](CO)[C@@H](O)[C@H](O)[C@H]7O)[C@]6(C)CC[C@H]5C4(C)C)O[C@H](CO[C@@H]4OC[C@@H](O)[C@H](O)[C@H]4O)[C@@H](O)[C@@H]3O)O[C@@H](C)[C@H](O)[C@H]2O)O[C@H](CO)[C@@H](O)[C@@H]1O`, the outcome was Active.

Consider `C/C(=C\CC[C@@](C)(O)[C@@H]1[C@H](O)C[C@H]2[C@@]1(C)CC[C@H]1C(C)(C)[C@@H](O[C@@H]3O[C@H](CO[C@@H]4OC[C@@H](O)[C@H](O)[C@H]4O)[C@@H](O)[C@H](O)[C@H]3O[C@@H]3O[C@@H](C)[C@H](O)[C@@H](O)[C@H]3O)CC[C@]21C)C[C@H](O)[C@@H](O)[C@@](C)(O)CO`, for which the outcome was Active.

Regarding `CC(=O)N[C@H]1[C@H](O[C@H]2[C@H](O[C@H]3[C@H](O[C@H]4CC[C@]5(C)[C@H]6C[C@@H](O)[C@@H]([C@](C)(O)CC/C=C(\C)C[C@@H]7OC(=O)O[C@H]7[C@](C)(O)CO)[C@]6(C)CC[C@H]5C4(C)C)O[C@H](CO[C@@H]4OC[C@@H](O)[C@H](O)[C@H]4O)[C@@H](O)[C@@H]3OC(C)=O)O[C@@H](C)[C@H](O)[C@H]2O)O[C@H](CO)[C@@H](O)[C@@H]1O`, the outcome was Active.

With `CC(=O)N[C@H]1[C@H](O[C@H]2[C@H](O[C@H]3[C@H](O[C@H]4CC[C@]5(C)[C@H]6C[C@@H](O)[C@@H]([C@](C)(O)CC/C=C(\C)C[C@H](O)[C@@H](O)[C@@](C)(O)CO)[C@]6(C)CC[C@H]5C4(C)C)O[C@H](CO[C@@H]4OC[C@@H](O)[C@H](O)[C@H]4O)[C@@H](O)[C@@H]3O)O[C@@H](C)[C@H](O)[C@H]2O)O[C@H](CO)[C@@H](O)[C@@H]1O`, the result was Active.

In the case of `CC(=O)N[C@H]1[C@H](O[C@H]2[C@H](O[C@H]3[C@H](O[C@H]4CC[C@]5(C)[C@H]6C[C@@H](O)[C@@H]([C@](C)(O)CC/C=C(\C)C[C@H](O)[C@H](O)C(C)(C)O)[C@]6(C)CC[C@H]5C4(C)C)O[C@H](CO[C@@H]4OC[C@@H](O)[C@H](O)[C@H]4O)[C@@H](O)[C@@H]3O)O[C@@H](C)[C@H](O)[C@H]2O)O[C@H](CO)[C@@H](O)[C@@H]1O`, the result was Active.

As to `CC(=O)N[C@H]1[C@H](O[C@H]2[C@H](O[C@H]3[C@H](O[C@H]4CC[C@]5(C)[C@H]6C[C@@H](O)[C@@H]([C@](C)(O)CC/C=C(\C)C[C@H](O)[C@H](O)C(C)(C)O)[C@]6(C)CC[C@H]5C4(C)C)O[C@H](CO)[C@@H](O)[C@@H]3O)O[C@@H](C)[C@H](O)[C@H]2O)O[C@H](CO)[C@@H](O)[C@@H]1O`, the outcome was Active.

For `CC(=O)N[C@H]1[C@H](O[C@H]2[C@H](O[C@H]3[C@H](O[C@H]4CC[C@]5(C)[C@H]6C[C@@H](O)[C@@H]([C@](C)(O)CC/C=C(\C)C[C@H](O)[C@@H](O)[C@@](C)(O)CO)[C@]6(C)CC[C@H]5C4(C)C)O[C@H](CO[C@@H]4OC[C@@H](O)[C@H](O)[C@H]4O)[C@@H](O)[C@@H]3O)O[C@@H](C)[C@H](O)[C@H]2O)O[C@H](CO)[C@@H](O)[C@@H]1O[C@@H]1OC[C@H](O)[C@H](O)[C@H]1O`, the outcome was Active.

For `CC(=O)N[C@H]1[C@H](O[C@H]2[C@H](O[C@H]3[C@H](O[C@H]4CC[C@]5(C)[C@H]6C[C@@H](O)[C@@H]([C@](C)(O)CC/C=C(\C)C[C@@H]7OC(=O)O[C@H]7[C@](C)(O)CO)[C@]6(C)CC[C@H]5C4(C)C)O[C@H](CO[C@@H]4OC[C@@H](O)[C@H](O)[C@H]4O)[C@@H](OC(C)=O)[C@@H]3O)O[C@@H](C)[C@H](O)[C@H]2O)O[C@H](CO)[C@@H](O)[C@@H]1O`, the outcome was Active.

Take `CC(=O)N[C@H]1[C@H](O[C@H]2[C@H](O[C@H]3[C@H](O[C@H]4CC[C@]5(C)[C@H]6C[C@@H](O)[C@@H]([C@](C)(O)CC/C=C(\C)C[C@H](O)[C@H](O)C(C)(C)O)[C@]6(C)CC[C@H]5C4(C)C)O[C@H](CO[C@@H]4OC[C@@H](O)[C@H](O)[C@H]4O)[C@@H](O)[C@@H]3O)O[C@@H](C)[C@H](O)[C@H]2O)O[C@H](CO)[C@@H](O)[C@@H]1O[C@@H]1OC[C@H](O)[C@H](O)[C@H]1O`: the outcome was Active.
